Here are results for 31 molecules from US20210122763A1, “OGA INHIBITOR COMPOUNDS” (Janssen Pharmaceutica NV, priority 2018, published 2021).

Experiment [1] deals with T1, recombinant human Meningioma Expressed Antigen 5 (MGEA5), also referred to as O-GlcNAcase (OGA) (Homo sapiens, UniProt O60502).
T1 construct: Full length OGA enzyme was purchased at OriGene (cat #TP322411); purchased OriGene TP322411
T1 sequence (O60502 1-916): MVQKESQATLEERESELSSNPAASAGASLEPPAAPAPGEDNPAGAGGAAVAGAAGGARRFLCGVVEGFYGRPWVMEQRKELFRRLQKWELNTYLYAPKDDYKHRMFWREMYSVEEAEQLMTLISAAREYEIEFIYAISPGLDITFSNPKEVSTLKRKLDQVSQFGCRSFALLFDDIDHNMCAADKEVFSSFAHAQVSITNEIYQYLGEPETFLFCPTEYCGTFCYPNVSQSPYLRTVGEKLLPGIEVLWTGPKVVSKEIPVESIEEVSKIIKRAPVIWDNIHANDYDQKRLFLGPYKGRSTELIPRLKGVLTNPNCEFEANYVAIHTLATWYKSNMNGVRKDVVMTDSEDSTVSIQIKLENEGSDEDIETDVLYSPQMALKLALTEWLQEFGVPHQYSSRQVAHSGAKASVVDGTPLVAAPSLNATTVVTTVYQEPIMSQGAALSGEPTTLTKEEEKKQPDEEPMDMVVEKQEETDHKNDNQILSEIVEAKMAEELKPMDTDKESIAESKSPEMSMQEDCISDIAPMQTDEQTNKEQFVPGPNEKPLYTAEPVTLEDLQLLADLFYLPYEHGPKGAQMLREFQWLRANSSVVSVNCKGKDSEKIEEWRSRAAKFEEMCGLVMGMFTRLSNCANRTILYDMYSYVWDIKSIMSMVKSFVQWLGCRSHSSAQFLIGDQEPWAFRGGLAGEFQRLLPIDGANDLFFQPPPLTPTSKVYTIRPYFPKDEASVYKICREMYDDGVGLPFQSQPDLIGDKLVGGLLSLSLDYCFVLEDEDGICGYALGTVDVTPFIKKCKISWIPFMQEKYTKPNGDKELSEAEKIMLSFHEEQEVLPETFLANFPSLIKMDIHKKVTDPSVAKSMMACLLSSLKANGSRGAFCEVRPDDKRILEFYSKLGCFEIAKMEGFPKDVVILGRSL
Briefly: OGA biochemical assay (inhibition of FM-GlcNAc hydrolysis, fluorescence). To be noted: for Emax: read-out: Enzymatic Emax (%); for IC50: read-out: Enzymatic hOGA, pIC50 (converted). The gist of the method:
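Full-length OGA at 2 nM was pre-incubated 60 min at room temperature with compound, then FM-GlcNAc at 100 uM final was added in citrate/phosphate buffer pH 7.2 with 0.005% Tween-20. After 6 h at room temperature, carbonate pH 11.0 stopped the reaction. Fluorescence read at 485/538 nm; IC50 and Hill coefficient from curve fit against no-inhibitor and saturating-standard controls.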

Experiment [2] deals with T2, OGA (Homo sapiens, UniProt O60502).
T2 construct: HEK293 cells inducible for P301L mutant human Tau (isoform 2N4R) were established at Janssen; endogenous in cells; host or cells: HEK293 cells inducible for P301L mutant human Tau (2N4R)
T2 sequence (O60502 1-916): T1 sequence (O60502 1-916)
Kind of experiment: OGA cellular assay (ICC detection of O-GlcNAcylated proteins in HEK293 cells inducible for P301L mutant human Tau). The class given is cell-based. The following applies: 6 hours incubation; for Emax: HEK293, HEK293 cells inducible for P301L mutant human Tau, maximum = Thiamet G 200 uM; for EC50: HEK293 cells inducible for P301L mutant human Tau, read-out: Cellular hOGA, pEC50 (converted). The gist of the method:
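HEK293 cells with inducible P301L 2N4R Tau, seeded in low-glucose medium, were exposed to compounds for 6 hours (0.2% DMSO), then PFA-fixed and stained with CTD110.6. Imaging intensity at 488 nm measured O-GlcNAcylation, with Hoechst nuclei counts for toxicity. IC50s came from non-linear regression, with Thiamet G at 200 uM as maximum inhibition.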

For the molecule `C[C@@H](c1ccc2c(n1)OCCO2)N1CCC(Oc2ccc(C(N)=O)nn2)CC1` (single isomer, unassigned) [Compound 106], in experiment [1], the Emax is 95% and the IC50 is 126 nM. Besides, in experiment [2], the Emax was found to be 48% and the EC50 was 631 nM.
Regarding `Cc1cnc(OC2CCN(C(C)c3nc4c(cc3F)OCCO4)CC2)c(C)n1` (stereo not shown) [Compound 84], in experiment [1], the Emax is 101% and the IC50 is 15.8 nM. For the same molecule, in experiment [2], the Emax was determined as 73% and the EC50 was 316 nM.
As to `Cc1cc(NC2CCN(C(C)c3ccc4c(n3)OCCO4)CC2)cc(C)n1` (stereo not shown) [Compound 78], in experiment [1], the Emax amounted to 99% and the IC50 is 100 nM. In addition, in experiment [2], the Emax was 55% and the EC50 is 813 nM.
In the case of `Cc1cnc(C)c(OC2CCN(C(C)c3nc4c(cc3F)OCCO4)CC2)n1` (stereo not shown) [Compound 87], in experiment [1], the Emax turned out to be 97% and the IC50 was 15.8 nM. For the same molecule, in experiment [2], the Emax amounted to 62% and the EC50 is 355 nM.
For `Cc1cc(OC2CCN(C(C)c3nc4c(cc3F)OCCO4)CC2)c(Cl)c(C)n1` (stereo not shown) [Compound 65] the same measures were 99%, 12.6 nM, 101% and 63.1 nM.
For `Cc1cc(OC2CCN(C(C)c3cnc4sc(C)nc4c3)CC2)cc(C)n1` (stereo not shown) [Compound 40], in experiment [1], the maximum response (Emax) is 101% and the IC50 was 126 nM. Besides, in experiment [2], the Emax was 59% and the EC50 is 631 nM.
For the molecule `Cc1cc(OC2CCN(C(C)c3ccc4c(n3)OCCO4)CC2)ncc1C#N` (stereo not shown) [Compound 101], in experiment [1], the maximum response (Emax) amounted to 94% and the IC50 is 100 nM. Besides, in experiment [2], the Emax was determined as 53% and the EC50 is 501 nM.
For `COc1cc(OC2CCN([C@H](C)c3nc4nc(C)sc4cc3F)CC2)cc(C)n1` (single isomer, unassigned) [Compound 80], in experiment [1], the maximum response (Emax) was found to be 96% and the IC50 was 631 nM. In experiment [2], the Emax is 7% and the EC50 was more than 1000 nM.
Take `COc1nccnc1OC1CCN(C(C)c2ccc3c(n2)OCCO3)CC1` (stereo not shown) [Compound 108]: in experiment [1], the Emax amounted to 101% and the IC50 was 631 nM. In experiment [2], the Emax turned out to be 15% and the EC50 was more than 1000 nM.
As to `Cc1nccnc1OC1CCN(C(C)c2nc3c(cc2F)OCCO3)CC1` (stereo not shown) [Compound 111], in experiment [1], the maximal response (Emax) came out at 98% and the IC50 is 50.1 nM. In experiment [2], the Emax was found to be 77% and the EC50 is 200 nM.
Take `CC(c1ccc2c(n1)OCCO2)N1CCC(Oc2ccc(OC(F)(F)F)cn2)CC1` (stereo not shown) [Compound 96]: in experiment [1], the Emax is 99% and the IC50 was 63.1 nM. For the same molecule, in experiment [2], the Emax stood at 41% and the EC50 is more than 1000 nM.
For `CC(c1ccc2c(n1)OCCO2)N1CCC(Oc2ccc(C(F)(F)F)nc2)CC1` (stereo not shown) [Compound 68], in experiment [1], the Emax was determined as 94% and the IC50 is 79.4 nM. Besides, in experiment [2], the Emax worked out at 57% and the EC50 was 794 nM.
Take `Cc1ccc(COC2CCN(C(C)c3nc4c(cc3F)OCCO4)CC2)cn1` (stereo not shown) [Compound 138]: in experiment [1], the Emax stood at 100% and the IC50 was 20 nM. For the same molecule, in experiment [2], the Emax was determined as 79% and the EC50 is 158 nM.
For `CC(c1ccc2c(n1)OCCO2)N1CCC(Oc2ccnc(C#N)c2)CC1` (stereo not shown) [Compound 51], in experiment [1], the Emax amounted to 100% and the IC50 was 63.1 nM. Moreover, in experiment [2], the Emax is 60% and the EC50 was 631 nM.
For `Cc1cc(CC2(F)CCN(C(C)c3ccc4c(n3)OCCO4)CC2)cc(C)n1` (stereo not shown) [Compound 73] the same measures were 90%, 2000 nM, 18% and more than 1000 nM.
`Cc1cccc(OC2CCN(C(C)c3ccc4c(n3)OCCO4)CC2)n1` (stereo not shown) [Compound 46]: in experiment [1], the Emax came out at 98% and the IC50 was 158 nM. In experiment [2], the Emax amounted to 33% and the EC50 was more than 1000 nM.
For `Cc1cc(C#N)cnc1OC1CCN(C(C)c2ccc3c(n2)OCCO3)CC1` (stereo not shown) [Compound 97] the same measures were 94%, 398 nM, 20% and more than 1000 nM.
For `COc1cnccc1OC1CCN(C(C)c2ccc3c(n2)OCCO3)CC1` (stereo not shown) [Compound 98] the same measures were 94%, 200 nM, 47% and 501 nM.
Regarding `Cc1cc(OC2CCN(C(C)c3cnc4c(c3)OCCO4)CC2)cc(C)n1` (stereo not shown) [Compound 5], in experiment [1], the Emax was determined as 93% and the IC50 is 1260 nM. For the same molecule, in experiment [2], the Emax was determined as 22% and the EC50 was more than 1000 nM.
`Cc1ccc(OC2CCN(C(C)c3ccc4c(n3)OCCO4)CC2)cn1` (stereo not shown) [Compound 41]: in experiment [1], the maximal response (Emax) amounted to 99% and the IC50 is 50.1 nM. Further, in experiment [2], the Emax came to 74% and the EC50 is 501 nM.
Turning to `Cc1cc(OCC2CCN(C(C)c3ccc4c(n3)OCCO4)CC2)cc(C)n1` (stereo not shown) [Compound 75], in experiment [1], the Emax was 99% and the IC50 is 398 nM. In experiment [2], the Emax is 39% and the EC50 is more than 1000 nM.
Regarding `Cc1cc(OC2CCN(C(C)c3nc4c(cc3F)CCO4)CC2)c(Cl)c(C)n1` (stereo not shown) [Compound 35], in experiment [1], the Emax was 101% and the IC50 is 7.94 nM. For the same molecule, in experiment [2], the Emax was found to be 98% and the EC50 is 25.1 nM.
In the same order, the values of `Cc1cc(OC2(CF)CCN(C(C)c3ccc4c(n3)OCCO4)CC2)cc(C)n1` (stereo not shown) [Compound 132] are 63%, 6310 nM, 24% and more than 1000 nM.
In the case of `Cc1cc(OC2CCN(C(C)c3ccc4sc(C)nc4n3)CC2)cc(C(F)(F)F)n1` (stereo not shown) [Compound 21], in experiment [1], the Emax worked out at 101% and the IC50 is 50.1 nM. For the same molecule, in experiment [2], the Emax was 55% and the EC50 is 813 nM.
On to `Cc1cc(OC2CCN(C(C)c3cc4nc(C)sc4cc3F)CC2)nc(C)n1` (stereo not shown) [Compound 38], for which, in experiment [1], the Emax was 101% and the IC50 is 15.8 nM. In addition, in experiment [2], the maximal effect (Emax) is 64% and the EC50 is 251 nM.
On to `Cc1cc(OC2CCN(C(C)c3ccc4c(n3)OCC4)CC2)cc(C)n1` (stereo not shown) [Compound 60], for which, in experiment [1], the Emax turned out to be 95% and the IC50 was 39.8 nM. Besides, in experiment [2], the Emax came out at 84% and the EC50 was 117 nM.
As to `Cc1cc(OC2CCN(C(C)c3ccc4c(n3)OCCO4)CC2)cc(C(F)F)n1` (stereo not shown) [Compound 64], in experiment [1], the Emax came out at 94% and the IC50 is 31.6 nM. In addition, in experiment [2], the Emax was 61% and the EC50 is 316 nM.
In the case of `CC(c1ccc2c(n1)OCCO2)N1CCC(Oc2ncc(C#N)cc2F)CC1` (stereo not shown) [Compound 105], in experiment [1], the Emax was found to be 97% and the IC50 was 398 nM. Further, in experiment [2], the Emax was 16% and the EC50 is more than 1000 nM.
For the molecule `Cc1cc(OC2CCN(C(C)c3ccc4c(n3)OCCO4)CC2)cc(OC(C)C)n1` (stereo not shown) [Compound 124], in experiment [1], the maximal effect (Emax) was 98% and the IC50 was 31.6 nM. In experiment [2], the Emax is 64% and the EC50 is 100 nM.
With `Cc1cc(OC2CCN(C(C)c3ccc4c(n3)OCCO4)CC2)cc(C(C)C)n1` (stereo not shown) [Compound 130], in experiment [1], the maximal response (Emax) is 100% and the IC50 was 39.8 nM. Also, in experiment [2], the Emax stood at 59% and the EC50 was 245 nM.
As to `Cc1cc(O[C@H]2CCN(C(C)c3ccc4c(n3)OCCO4)C[C@H]2C)cc(C)n1` (stereo partly shown) [Compound 28], in experiment [1], the Emax was 101% and the IC50 was 10 nM. In experiment [2], the maximal response (Emax) was 68% and the EC50 was 126 nM.

Broadly, the Emax is the maximal effect, on the per cent scale that the assay sets.
